Assay results published in PubChem BioAssay AID328 (DTP/NCI, 2004).
Values joined by “and” are separate entries in the source; they are usually repeats but may differ in a detail not shown here. Equal entries are not always repeated. Inconclusive results and toxic doses are left out.

Test system: BDF1 mice, P388 leukemia ip, median survival T/C
Assay: NCI In Vivo Anticancer Drug Screen. Data for tumor model P388 Leukemia (intraperitoneal) in B6D2F1 (BDF1) mice
Details: endpoint: median survival time, higher = longer survival
Method in brief: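 Vehicle-dosed animals serve as the reference; survival of compound-dosed, tumour-implanted mice is divided by it.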

[1] = dose: 50.0 mg/kg/injection, schedule: Q01DX009 (ip), vehicle: saline
[2] = dose: 100.0 mg/kg/injection, schedule: Q01DX009 (ip), vehicle: saline
[3] = dose: 200.0 mg/kg/injection, schedule: Q01DX009 (ip), vehicle: saline
[4] = dose: 200.0 mg/kg/injection, schedule: Q04DX003 (ip), vehicle: saline
[5] = dose: 400.0 mg/kg/injection, schedule: Q01DX009 (ip), vehicle: saline
[6] = dose: 400.0 mg/kg/injection, schedule: Q04DX003 (ip), vehicle: saline
[7] = dose: 100.0 mg/kg/injection, schedule: Q04DX003 (ip), vehicle: saline with Tween-80
[8] = dose: 100.0 mg/kg/injection, schedule: Q01DX009 (ip), vehicle: saline with Tween-80
[9] = dose: 200.0 mg/kg/injection, schedule: Q01DX009 (ip), vehicle: saline with Tween-80
[10] = dose: 200.0 mg/kg/injection, schedule: Q04DX003 (ip), vehicle: saline with Tween-80
[11] = dose: 400.0 mg/kg/injection, schedule: Q01DX009 (ip), vehicle: saline with Tween-80
[12] = dose: 400.0 mg/kg/injection, schedule: Q04DX003 (ip), vehicle: saline with Tween-80
[13] = dose: 100.0 mg/kg/injection, schedule: Q04DX003 (ip), vehicle: saline
[14] = dose: 0.78 mg/kg/injection, schedule: Q01DX009 (ip), vehicle: saline
[15] = dose: 3.13 mg/kg/injection, schedule: Q01DX009 (ip), vehicle: saline with Tween-80
[16] = dose: 3.13 mg/kg/injection, schedule: Q01DX009 (ip), vehicle: saline
[17] = dose: 50.0 mg/kg/injection, schedule: Q01DX009 (ip), vehicle: saline with Tween-80

CCOc1ccn(CC(=O)Nc2nccs2)c(=O)n1
T/C (dose: 12.5 mg/kg/injection, schedule: Q01DX009 (ip), vehicle: saline): 104 % of control
T/C (dose: 25.0 mg/kg/injection, schedule: Q01DX009 (ip), vehicle: saline): 95 % of control
T/C [1]: 104 % of control
T/C (dose: 50.0 mg/kg/injection, schedule: Q04DX003 (ip), vehicle: saline): 114 % of control
T/C [2]: 104 % of control
T/C [3]: 100 % of control
T/C [4]: 106 % of control
T/C [5]: 94 % of control
T/C [6]: 97 % of control

CCCCN(CCCC)CC(C)O (configuration not stated)
T/C (dose: 25.0 mg/kg/injection, schedule: Q04DX003 (ip), vehicle: saline with Tween-80): 100 % of control
T/C (dose: 50.0 mg/kg/injection, schedule: Q04DX003 (ip), vehicle: saline with Tween-80): 104 % of control
T/C [7]: 100 % of control

CCCCCCCCCCNCCS
T/C (dose: 8.0 mg/kg/injection, schedule: Q01DX010 (ip), vehicle: carboxymethylcellulose (CMC)): 105 % of control
T/C (dose: 16.0 mg/kg/injection, schedule: Q01DX010 (ip), vehicle: carboxymethylcellulose (CMC)): 110 % of control
T/C (dose: 32.0 mg/kg/injection, schedule: Q01DX010 (ip), vehicle: carboxymethylcellulose (CMC)): 105 % of control

Cc1ccc(N=Cc2ccccc2O)cc1Cl
T/C (dose: 100.0 mg/kg/injection, schedule: Q01DX001 (ip), vehicle: saline with Tween-80): 109 % of control
T/C (dose: 200.0 mg/kg/injection, schedule: Q01DX001 (ip), vehicle: saline with Tween-80): 100 % of control
T/C (dose: 400.0 mg/kg/injection, schedule: Q01DX001 (ip), vehicle: saline with Tween-80): 100 % of control

CCOC(=O)C1=C(C)NC(C)=C(C(=O)OCC)C1c1ccccc1Cl
T/C (dose: 28.75 mg/kg/injection, schedule: Q04DX003 (ip), vehicle: Klucel (hydroxypropylcellulose) (HPC)): 95 % of control
T/C (dose: 57.5 mg/kg/injection, schedule: Q04DX003 (ip), vehicle: Klucel (hydroxypropylcellulose) (HPC)): 104 % of control
T/C (dose: 75.0 mg/kg/injection, schedule: Q01DX009 (ip), vehicle: Klucel (hydroxypropylcellulose) (HPC)): 90 % of control
T/C (dose: 115.0 mg/kg/injection, schedule: Q01DX009 (ip), vehicle: Klucel (hydroxypropylcellulose) (HPC)): 86 % of control
T/C (dose: 115.0 mg/kg/injection, schedule: Q04DX003 (ip), vehicle: Klucel (hydroxypropylcellulose) (HPC)): 100 % of control
T/C (dose: 170.0 mg/kg/injection, schedule: Q01DX001 (ip), vehicle: Klucel (hydroxypropylcellulose) (HPC)): 100 % of control
T/C (dose: 260.0 mg/kg/injection, schedule: Q01DX001 (ip), vehicle: Klucel (hydroxypropylcellulose) (HPC)): 100 % of control

COC(OC)c1[nH]c(=S)[nH]c(=O)c1Cc1cccc2ccccc12
T/C [8]: 111 % of control
T/C [7]: 100 % of control
T/C [9]: 92 % of control
T/C [10]: 91 % of control
T/C [11]: 88 % of control
T/C [12]: 87 % of control

O=C(O)CCCC1CCC(=O)CC1
T/C [1]: 90 % of control
T/C (dose: 100.0 mg/kg/injection, schedule: Q01DX001 (ip), vehicle: other): 95 % of control
T/C [2]: 90 % of control
T/C [13]: 104 % of control
T/C (dose: 200.0 mg/kg/injection, schedule: Q01DX001 (ip), vehicle: other): 104 % of control
T/C [3]: 110 % of control
T/C [4]: 104 % of control
T/C (dose: 400.0 mg/kg/injection, schedule: Q01DX001 (ip), vehicle: other): 120 % of control
T/C [5]: 110 % of control
T/C [6]: 109 % of control

Cc1cc(C(C)(C)CC(C)(C)C)ccc1O
T/C (dose: 88.0 mg/kg/injection, schedule: Q01DX009 (sc), vehicle: olive oil, sesame oil, peanut oil): 100 % of control
T/C (dose: 100.0 mg/kg/injection, schedule: Q01DX009 (sc), vehicle: olive oil, sesame oil, peanut oil): 100 % of control
T/C (dose: 100.0 mg/kg/injection, schedule: Q04DX003 (sc), vehicle: olive oil, sesame oil, peanut oil): 91 % of control
T/C (dose: 133.0 mg/kg/injection, schedule: Q01DX009 (sc), vehicle: olive oil, sesame oil, peanut oil): 92 % of control
T/C (dose: 200.0 mg/kg/injection, schedule: Q01DX009 (sc), vehicle: olive oil, sesame oil, peanut oil): 86 % of control
T/C (dose: 200.0 mg/kg/injection, schedule: Q04DX003 (sc), vehicle: olive oil, sesame oil, peanut oil): 100 % of control
T/C (dose: 300.0 mg/kg/injection, schedule: Q01DX009 (sc), vehicle: olive oil, sesame oil, peanut oil): 106 % of control
T/C (dose: 400.0 mg/kg/injection, schedule: Q01DX009 (sc), vehicle: olive oil, sesame oil, peanut oil): 110 % of control
T/C (dose: 400.0 mg/kg/injection, schedule: Q04DX003 (sc), vehicle: olive oil, sesame oil, peanut oil): 104 % of control

c1ccc(-n2nc3c(c2OCCN2CCCC2)CCCc2ccccc2-3)cc1
T/C (dose: 66.0 mg/kg/injection, schedule: Q04DX003 (ip), vehicle: saline with Tween-80): 108 % of control
T/C [7]: 104 % of control and 116 % of control

c1ccc(C2C3(c4ccccc4)C4(c5ccccc5)OC(c5ccccc5)(c5ccccc54)C23c2ccccc2)cc1 (configuration not stated)
T/C (dose: 50.0 mg/kg/injection, schedule: Q01DX009 (ip), vehicle: Klucel (hydroxypropylcellulose) (HPC)): 91 % of control
T/C (dose: 100.0 mg/kg/injection, schedule: Q01DX009 (ip), vehicle: Klucel (hydroxypropylcellulose) (HPC)): 103 % of control
T/C (dose: 200.0 mg/kg/injection, schedule: Q01DX009 (ip), vehicle: Klucel (hydroxypropylcellulose) (HPC)): 92 % of control

O=[N+]([O-])CC(OCCO)C(Cl)(Cl)Cl (configuration not stated)
T/C (dose: 3.12 mg/kg/injection, schedule: Q04DX003 (ip), vehicle: saline): 95 % of control
T/C (dose: 6.25 mg/kg/injection, schedule: Q01DX009 (ip), vehicle: acetone): 110 % of control
T/C (dose: 6.25 mg/kg/injection, schedule: Q04DX003 (ip), vehicle: saline): 100 % of control
T/C (dose: 12.5 mg/kg/injection, schedule: Q01DX009 (ip), vehicle: acetone): 89 % of control
T/C (dose: 12.5 mg/kg/injection, schedule: Q04DX003 (ip), vehicle: saline): 95 % of control
T/C (dose: 18.0 mg/kg/injection, schedule: Q04DX003 (ip), vehicle: saline with Tween-80): 118 % of control
T/C (dose: 28.0 mg/kg/injection, schedule: Q04DX003 (ip), vehicle: saline with Tween-80): 90 % of control
T/C (dose: 40.0 mg/kg/injection, schedule: Q04DX003 (ip), vehicle: saline with Tween-80): 86 % of control

COC(=O)C12Oc3ccc(-c4ccc5c(c4O)C(O)=C4C(=O)CC(C)C(O)C4(C(=O)OC)O5)c(O)c3C(O)=C1C(=O)CC(C)C2O (configuration not stated)
T/C (dose: 0.39 mg/kg/injection, schedule: Q01DX009 (ip), vehicle: saline with Tween-80): 100 % of control
T/C (dose: 0.78 mg/kg/injection, schedule: Q01DX009 (ip), vehicle: saline with Tween-80): 109 % of control
T/C [14]: 100 % of control
T/C (dose: 1.56 mg/kg/injection, schedule: Q01DX009 (ip), vehicle: saline with Tween-80): 104 % of control and 109 % of control
T/C [15]: 104 % of control and 109 % of control
T/C [16]: 93 % of control
T/C (dose: 6.25 mg/kg/injection, schedule: Q01DX009 (ip), vehicle: saline with Tween-80): 101 % of control

COC1=CC(=O)C(Cl)=C(OC)C1=O
T/C [14]: 113 % of control
T/C (dose: 1.56 mg/kg/injection, schedule: Q01DX009 (ip), vehicle: saline): 113 % of control
T/C [15]: 110 % of control
T/C [16]: 104 % of control

CCC[N+]12C(O)C(CC)C3CC1C1N(C)c4ccc(Br)cc4C14CC2C3C4O (configuration not stated)
T/C [17]: 102 % of control
T/C [8]: 105 % of control

CCC(C(=O)OC)C1CCCCC1 (configuration not stated)
T/C [8]: 107 % of control
T/C [7]: 108 % of control
T/C [9]: 111 % of control
T/C [10]: 100 % of control
T/C [11]: 103 % of control
T/C [12]: 104 % of control

CC(=O)Nc1nc(C)c(CCC#N)c(=O)[nH]1
T/C [13]: 86 % of control
T/C [4]: 90 % of control
T/C [6]: 86 % of control

CC[N+](CC)(CC)CC[N+](CC)(CC)CC
T/C [1]: 95 % of control
T/C [2]: 96 % of control and 88 % of control
T/C [3]: 95 % of control and 91 % of control

C=CC(=O)NCNC(=O)CCBr
T/C [10]: 150 % of control
T/C (dose: 300.0 mg/kg/injection, schedule: Q04DX003 (ip), vehicle: saline with Tween-80): 170 % of control

O=C(CC(=O)C(F)(F)F)c1ccc(-c2ccccc2)cc1
T/C [17]: 110 % of control
T/C [8]: 122 % of control
